For data set [1] the following is noted: Crystal; DTA.
Data set [2] is described as follows: Molar enthalpy of transition or fusion. The conditions noted are these: Crystal; DSC.

We go through two compounds from the NIST ThermoML archive (doi:10.1016/j.tca.2009.08.017).

Numbers after ± are expanded uncertainties.

Regarding `NC(=O)C[C@H](N)C(=O)O` [L-asparagine], the Normal melting temperature in data set [1] was found to be 210.20 ± 3.2 °C. The “Molar enthalpy of transition or fusion” value in data set [2] turned out to be 26.9 ± 1.53 kcal/mol.

Turning to `NC(=O)CC[C@H](N)C(=O)O` [L-glutamine], in data set [1], the Normal melting temperature worked out at 182.20 ± 3.4 °C. Further, in data set [2], the “Molar enthalpy of transition or fusion” value was 6.93 ± 0.884 kcal/mol.
